Source: the supplement of paper PMC10307832

Experiments:
Assay in all cases: relative viability (nuclei count vs DMSO), 5 days (fraction); higher = more cells survive
[1] = system: NCI-H3122
Summary of the method: (§1)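 For relative viability, nuclei counts in treated wells were divided by those in vehicle wells. Lung cancer cell lines had been pin-tool dosed in 1536-well plates the day after seeding and cultured for 5 days, then fixed and stained in one step (final 0.05% Triton X-100, 1% formaldehyde, 1 ug/ml Hoechst) and imaged at 4×. Doses were one drug alone or a fixed anchor-drug dose plus five library-drug doses (not always all listed) in √10 steps, and values are duplicate-plate medians.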

[2] = system: 201T
Summary of the method: as §1

[3] = system: NCI-H647
Summary of the method: as §1

[4] = system: NCI-H23
Summary of the method: as §1

[5] = system: NCI-H1395
Summary of the method: as §1

[6] = system: HCC-44
Summary of the method: as §1

[7] = system: BEN
Summary of the method: as §1

[8] = system: NCI-H2087
Summary of the method: as §1

[9] = system: LOU-NH91
Summary of the method: as §1

[10] = system: NCI-H441
Summary of the method: as §1

[11] = system: NCI-H2023
Summary of the method: as §1

[12] = system: NCI-H838
Summary of the method: as §1

[13] = system: NCI-H1993
Summary of the method: as §1

[14] = system: NCI-H2347
Summary of the method: as §1

[15] = system: NCI-H596
Summary of the method: as §1

[16] = system: LCLC-103H
Summary of the method: as §1

[17] = system: EMC-BAC-2
Summary of the method: as §1

[18] = system: NCI-H2126
Summary of the method: as §1

[19] = system: NCI-H1666
Summary of the method: as §1

[20] = system: NCI-H727
Summary of the method: as §1

[21] = system: NCI-H650
Summary of the method: as §1

[22] = system: HARA
Summary of the method: as §1

[23] = system: NCI-H2009
Summary of the method: as §1

O=C(O)c1ccc(-c2c[nH]c3ncc(-c4ccccc4)cc23)cc1C1CCCC1 + O=C(CCCCCCC(=O)Nc1ccccc1)NO [Vorinostat] (partner 1 µM)
relative viability ([1]; first compound 0.04 µM): 1.1
relative viability ([1]; first compound 0.1265 µM): 1.07
relative viability ([1]; first compound 0.4 µM): 1.12
relative viability ([1]; first compound 1.265 µM): 0.855
relative viability ([2]; first compound 0.04 µM): 0.949
relative viability ([2]; first compound 0.1265 µM): 0.963
relative viability ([2]; first compound 0.4 µM): 0.952
relative viability ([2]; first compound 1.265 µM): 0.989
relative viability ([3]; first compound 0.04 µM): 0.645
relative viability ([3]; first compound 0.1265 µM): 0.47
relative viability ([3]; first compound 0.4 µM): 0.491
relative viability ([3]; first compound 1.265 µM): 0.361
relative viability ([4]; first compound 0.04 µM): 0.791
relative viability ([4]; first compound 0.1265 µM): 0.844
relative viability ([4]; first compound 0.4 µM): 0.588
relative viability ([4]; first compound 1.265 µM): 0.575
relative viability ([5]; first compound 0.04 µM): 0.7
relative viability ([5]; first compound 0.1265 µM): 0.67
relative viability ([5]; first compound 0.4 µM): 0.672
relative viability ([5]; first compound 1.265 µM): 0.683
relative viability ([6]; first compound 0.04 µM): 1.04
relative viability ([6]; first compound 0.1265 µM): 1.06
relative viability ([6]; first compound 0.4 µM): 1.02
relative viability ([6]; first compound 1.265 µM): 0.971
relative viability ([7]; first compound 0.04 µM): 0.507
relative viability ([7]; first compound 0.1265 µM): 0.614
relative viability ([7]; first compound 0.4 µM): 0.475
relative viability ([7]; first compound 1.265 µM): 0.505
relative viability ([8]; first compound 0.04 µM): 0.916
relative viability ([8]; first compound 0.1265 µM): 0.924
relative viability ([8]; first compound 0.4 µM): 0.611
relative viability ([8]; first compound 1.265 µM): 0.465
relative viability ([9]; first compound 0.04 µM): 0.987
relative viability ([9]; first compound 0.1265 µM): 0.992
relative viability ([9]; first compound 0.4 µM): 0.942
relative viability ([9]; first compound 1.265 µM): 0.86
relative viability ([10]; first compound 0.04 µM): 0.866
relative viability ([10]; first compound 0.1265 µM): 0.837
relative viability ([10]; first compound 0.4 µM): 0.615
relative viability ([10]; first compound 1.265 µM): 0.445
relative viability ([11]; first compound 0.04 µM): 0.825
relative viability ([11]; first compound 0.1265 µM): 0.967
relative viability ([11]; first compound 0.4 µM): 0.523
relative viability ([11]; first compound 1.265 µM): 0.507
relative viability ([12]; first compound 0.04 µM): 0.68
relative viability ([12]; first compound 0.1265 µM): 0.773
relative viability ([12]; first compound 0.4 µM): 0.771
relative viability ([12]; first compound 1.265 µM): 0.544
relative viability ([13]; first compound 0.04 µM): 0.908
relative viability ([13]; first compound 0.1265 µM): 1.07
relative viability ([13]; first compound 0.4 µM): 0.725
relative viability ([13]; first compound 1.265 µM): 0.311
relative viability ([14]; first compound 0.04 µM): 0.576
relative viability ([14]; first compound 0.1265 µM): 0.773
relative viability ([14]; first compound 0.4 µM): 0.597
relative viability ([14]; first compound 1.265 µM): 0.46
relative viability ([15]; first compound 0.04 µM): 0.499
relative viability ([15]; first compound 0.1265 µM): 0.657
relative viability ([15]; first compound 0.4 µM): 0.583
relative viability ([15]; first compound 1.265 µM): 0.571
relative viability ([16]; first compound 0.04 µM): 0.777
relative viability ([16]; first compound 0.1265 µM): 0.758
relative viability ([16]; first compound 0.4 µM): 0.779
relative viability ([16]; first compound 1.265 µM): 0.76
relative viability ([17]; first compound 0.04 µM): 0.421
relative viability ([17]; first compound 0.1265 µM): 0.575
relative viability ([17]; first compound 0.4 µM): 0.449
relative viability ([17]; first compound 1.265 µM): 0.391
relative viability ([18]; first compound 0.04 µM): 0.823
relative viability ([18]; first compound 0.1265 µM): 0.755
relative viability ([18]; first compound 0.4 µM): 0.786
relative viability ([18]; first compound 1.265 µM): 0.616
relative viability ([19]; first compound 0.04 µM): 1.04
relative viability ([19]; first compound 0.1265 µM): 1.02
relative viability ([19]; first compound 0.4 µM): 1.08
relative viability ([19]; first compound 1.265 µM): 0.737
relative viability ([20]; first compound 0.04 µM): 0.991
relative viability ([20]; first compound 0.1265 µM): 1.19
relative viability ([20]; first compound 0.4 µM): 1.31
relative viability ([20]; first compound 1.265 µM): 1.18
relative viability ([21]; first compound 0.04 µM): 0.48
relative viability ([21]; first compound 0.1265 µM): 0.394
relative viability ([21]; first compound 0.4 µM): 0.413
relative viability ([21]; first compound 1.265 µM): 0.22
relative viability ([22]; first compound 0.04 µM): 0.558
relative viability ([22]; first compound 0.1265 µM): 0.49
relative viability ([22]; first compound 0.4 µM): 0.568
relative viability ([22]; first compound 1.265 µM): 0.405
relative viability ([23]; first compound 0.04 µM): 0.719
relative viability ([23]; first compound 0.1265 µM): 0.733
relative viability ([23]; first compound 0.4 µM): 0.744
relative viability ([23]; first compound 1.265 µM): 0.635
